# Measured values published in patent US20240156779A1, “SMALL MOLECULE ALLOSTERIC MODULATORS OF CLASS B GPCR, THE PTHR, AND METHOD TO IDENTIFY THEM” (University of Pittsburgh - Of the Commonwealth System of …, priority 2021, published 2024).
# Substitutions are numbered along the chain they refer to. Entries after “also recorded” stand apart in the source; their conditions may differ.
# What was measured:
# [1] = molecular target: T1, PTHR (Homo sapiens, UniProt Q03431); conditions: cited from earlier work
# T1 sequence (Q03431 27-593): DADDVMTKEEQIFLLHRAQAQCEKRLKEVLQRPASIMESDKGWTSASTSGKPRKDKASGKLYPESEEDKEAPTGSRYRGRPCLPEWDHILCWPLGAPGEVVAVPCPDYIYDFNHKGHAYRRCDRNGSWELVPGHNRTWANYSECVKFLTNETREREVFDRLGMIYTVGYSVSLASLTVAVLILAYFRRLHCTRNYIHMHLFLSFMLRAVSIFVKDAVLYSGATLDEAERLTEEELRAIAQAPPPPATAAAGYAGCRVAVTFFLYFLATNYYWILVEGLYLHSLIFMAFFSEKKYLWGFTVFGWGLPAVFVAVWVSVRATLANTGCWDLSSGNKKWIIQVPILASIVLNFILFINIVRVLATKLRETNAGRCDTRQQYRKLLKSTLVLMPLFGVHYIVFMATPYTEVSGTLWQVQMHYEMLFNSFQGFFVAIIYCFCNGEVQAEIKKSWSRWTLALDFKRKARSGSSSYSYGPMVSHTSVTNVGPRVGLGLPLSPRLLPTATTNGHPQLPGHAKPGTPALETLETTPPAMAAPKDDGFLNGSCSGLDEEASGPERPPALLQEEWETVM
# [2] = molecular target: T1, PTHR; test: Radioligand receptor binding, membranes of GP-2.3 cells; parameters: expressed in transfected cells; host or cells: HEK-293-derived GP-2.3 cells (membranes)
# [3] = molecular target: b2-adrenergic receptor (b2AR) (Homo sapiens, UniProt P07550); test: cAMP production mediated by b2AR agonist isoproterenol; type: cell-based; conditions: in response to isoproterenol
# [4] = molecular target: T2, PTHR association with G proteins (mGs, mGq) (Homo sapiens, UniProt Q03431); test: FRET time courses of PTHR-CFP interaction with mini-Gs and mini-Gq; type: cell-based; conditions: PTH-induced
# T2 construct: expressed in transfected cells
# T2 sequence (Q03431 27-593): T1 sequence (Q03431 27-593)
# T2 sequence (P01270 32-65 partner limits assumed): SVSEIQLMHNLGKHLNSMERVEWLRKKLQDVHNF
# [5] = molecular target: T1, PTHR; test: PTH-induced cAMP time courses (FRET sensor) in HEK293 cells stably expressing PTHR; type: cell-based; parameters: expressed in transfected cells; conditions: for inhibition of PTH-mediated cAMP production compared with Pitt12: 10 μM compound
# [6] = system: C57BL/6 mice
# [7] = system: recombinant PTHR; test: Intracellular Ca2+ release (Fluo-4) in response to PTH; type: cell-based; conditions: 100 nM PTH, 10 μM Pitt molecules
# [8] = molecular target: T3, human PTHR mutant R181A (Homo sapiens, UniProt Q03431, R181A); test: PTH-induced cAMP signaling of receptor mutant R181A; type: cell-based
# T3 construct: HA
# T3 sequence (Q03431 27-593 R181A): T1 sequence (Q03431 27-593) with R155A
# [9] = molecular target: T4, human PTHR mutant E180A (Homo sapiens, UniProt Q03431, E180A); test: PTH-induced cAMP signaling of receptor mutant E180A; type: cell-based
# T4 construct: HA
# T4 sequence (Q03431 27-593 E180A): T1 sequence (Q03431 27-593) with E154A
# [10] = molecular target: T5, human PTH type 1 receptor (hPTHR) (Homo sapiens, UniProt Q03431); test: Concentration-response curves for cAMP (GloSensor) by PTH with Pitt molecules; type: cell-based; conditions: range of Pitt concentrations
# T5 construct: expressed in transfected cells
# T5 sequence (Q03431 27-593): T1 sequence (Q03431 27-593)
# [11] = molecular target: vasopressin type 2 receptor (V2R) (Homo sapiens, UniProt P30518); test: vasopressin-mediated cAMP production; type: cell-based
# [12] = 20 μmol/kg, 3 h after injection
# vasopressin type 2 receptor (V2R), sequence (P30518 whole entry, species assumed): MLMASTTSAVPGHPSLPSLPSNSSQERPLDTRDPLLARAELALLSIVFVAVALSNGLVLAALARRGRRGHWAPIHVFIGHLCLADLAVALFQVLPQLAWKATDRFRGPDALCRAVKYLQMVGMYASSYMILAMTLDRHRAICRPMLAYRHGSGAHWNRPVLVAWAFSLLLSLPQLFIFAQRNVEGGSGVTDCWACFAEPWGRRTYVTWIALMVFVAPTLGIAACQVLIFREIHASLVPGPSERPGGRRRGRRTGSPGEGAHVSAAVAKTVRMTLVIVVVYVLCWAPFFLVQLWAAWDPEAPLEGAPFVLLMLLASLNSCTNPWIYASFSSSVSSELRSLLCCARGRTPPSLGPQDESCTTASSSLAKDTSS
# b2-adrenergic receptor (b2AR), sequence (P07550 whole entry, species assumed): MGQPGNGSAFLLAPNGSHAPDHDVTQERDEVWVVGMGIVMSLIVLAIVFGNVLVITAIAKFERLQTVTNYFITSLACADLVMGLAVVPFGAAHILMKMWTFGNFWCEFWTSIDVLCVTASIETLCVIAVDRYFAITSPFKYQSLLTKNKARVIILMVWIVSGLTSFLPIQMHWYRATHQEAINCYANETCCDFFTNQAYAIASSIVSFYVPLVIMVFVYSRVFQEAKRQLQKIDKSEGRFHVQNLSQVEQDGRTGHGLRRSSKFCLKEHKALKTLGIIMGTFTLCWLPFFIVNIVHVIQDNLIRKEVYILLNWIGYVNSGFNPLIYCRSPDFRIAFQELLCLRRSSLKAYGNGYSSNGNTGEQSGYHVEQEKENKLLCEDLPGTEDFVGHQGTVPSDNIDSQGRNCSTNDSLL
smiles,measurement,setting,value
CCCCn1c(O)c(C(=N)N)c(=O)n(CCCC)c1=O [AH-3960],mode of action at PTHR,[1],weak agonist
Cc1cc(N2C(=O)NC(=O)C2(C)C)cc(C)c1CCS(=O)(=O)N1CCC2(CC1)N=C(c1ccc(OC(F)(F)F)cc1)NC2=O [PCO371],mode of action at PTHR,[1],orthosteric agonist
COc1ccc([C@@H]2CN(C(=O)OCC3c4ccccc4-c4ccccc43)C[C@H]2C(=O)O)cc1 [Pitt12],"inhibitory binding constant (Ki), RG state",[2]; G-protein coupled (RG) state,in the μM range
same,"inhibitory binding constant (Ki), R0 state","[2]; G-protein uncoupled (R0) state, with GTPgS",in the μM range
same,effect on β2AR-mediated cAMP production,[3],no effect
same,G proteins association with the receptor,[4],decrease in both the kinetics and magnitude
same,alteration of plasma membrane cAMP,[5]; 1 nM PTH,≈ 30%
same,reduction of endosomal cAMP production,[5]; 1 nM PTH,≈ 70%
same,effect on PTH-induced cAMP production (AUC of time course),"[5]; 1 nM PTH co-applied with 10 μM compound, HEK293-PTHR",distinguishably high potential to elicit negative effects
same,sustained cAMP response on blockade of receptor internalization,"[5]; cells expressing DynK44A, PTH with Pitt coapplied",moderately affected
same,"serum Ca2+ (sCa2+) level, compound alone",[6]; [12],significantly reduced
same,"serum phosphate (sPi) level, compound alone",[6]; [12],trend of reducing
same,BUN/creatine ratio (kidney function and hydration status),"[6]; mouse, in vivo",lack of significant changes
same,PTH-mediated release of stored intracellular Ca2+,[7],noticeable reduction
same,sensitivity of R181A mutant to modulation of PTH-induced cAMP,[8],lost their ability to respond to negative modulation
same,sensitivity of E180A mutant to modulation of PTH-induced cAMP,[9],lost their ability to respond to negative modulation
same,effect on efficacy (Emax) of PTH to mediate cAMP increase,[10],blocked cAMP production by PTH; also recorded: marked reduction in efficacy
same,effect on vasopressin-mediated cAMP,[11],lack of effect
O=C(O)[C@@H]1CN(C(=O)OCC2c3ccccc3-c3ccccc32)C[C@H]1c1ccccc1 [Pitt41],inhibition of PTH-mediated cAMP production compared with Pitt12,[5]; HEK293-PTHR,more efficacious than Pitt12
Cc1ccc([C@@H]2CN(C(=O)OCC3c4ccccc4-c4ccccc43)C[C@H]2C(=O)O)cc1 [Pitt42],inhibition of PTH-mediated cAMP production compared with Pitt12,[5]; HEK293-PTHR,more efficacious than Pitt12
